# Experimental data as given in PMC10480161, “Identification of potent and selective N-myristoyltransferase inhibitors of Plasmodium vivax liver stage hypnozoites and schizonts” (Nature Communications, 2023).
# “And” between values parts separate entries of the source, which are not always exact repeats. Equal values may be shown once.
# Test system: primary human hepatocytes
# Test: Nuclear counts (DAPI) in P. vivax-infected primary hepatocytes as measure of toxicity
# Type: cell-based
# Settings: 1 uM, two technical replicates
# Experimental: Accordingly, we applied dose–response curves of all the tested NMTs on parasite isolates 2 and 3 over concentrations up to 20 µM (Fig. 5c, d, Source Data file). […] Nuclei were counted in each well using DAPI staining as a measure of toxicity (Supplementary Fig. 86, Supplementary Source data). We used the phosphatidylinositol 4-kinase inhibitor (PI4Ki), MMV390048, as a positive control for eliminating schizonts[37],[38].
# Plasmodium vivax liver stage assays were performed as described previously. Cryopreserved primary human hepatocytes (Cat No. F00995-P) and hepatocyte culture medium (HCM) (InVitroGroTM CP Medium) were obtained from Bioreclamation IVT, Inc., (Baltimore, MD, USA). Briefly, we seeded 384-well plates with primary hepatocytes from a single donor lot at a density of 25,000 cells per well. We then infected the hepatocytes with 14,000 freshly hand-dissected sporozoites per well. Cells were exposed to the compounds at indicated concentrations from day 5 post-infection. We used Pi4K inhibitor MMV390048, at 20 µM, as a positive control to eliminate P. vivax liver schizonts. We then proceeded to feed cultures every day, replacing the compounds until day 8 post-infection. Cells were fixed with 4% PFA, permeabilized with 1% Triton X-100, blocked with 2% BSA, and stained with DAPI and PvUIS4 antibodies to detect schizonts and hypnozoites forms by confocal microscopy. […] DAPI was diluted 1:2000. The images were processed, analyzed and outlier cells were removed using IMARIS (Bitplane Inc.) image analysis software.
# Supplementary Fig. 86. […] Nuclear […]
# counts, normalized to DMSO controls, for NMT inhibitors across a dose response. Counts were ob-tained using DAPI staining from the P. vivax-infected wells quantified in Fig. 5d. Error bars represent the standard deviation of two technical replicates.
# (1 picture or pasted object on this page, not shown here)
row,SMILES,Nucleus counts per well
1,Cc1nn(C)c(C)c1CCOc1cccnc1-c1ccnc(N2CCNCC2)c1 [Compound 12a],15610 per well and 14860 per well
2,Cc1nn(C)c(C)c1CCOc1cccnc1-c1cccc(N2CCNCC2)c1 [Compound 12b],16000 per well and 15090 per well
3,Cc1nn(C)c(C)c1CCOc1ccccc1-c1cccc(N2CCNCC2)c1 [Compound 12d],15900 per well and 16970 per well
4,Cc1nn(C)c(C)c1CCOc1cc(F)ccc1-c1cccc(N2CCNCC2)c1 [Compound 12f],15280 per well and 15770 per well

# Same assay, conditions: 2.5uM, two technical replicates
row,SMILES,Nucleus counts per well
1,Cc1nn(C)c(C)c1CCOc1cccnc1-c1ccnc(N2CCNCC2)c1 [Compound 12a],15510 per well and 15490 per well
2,Cc1nn(C)c(C)c1CCOc1cccnc1-c1cccc(N2CCNCC2)c1 [Compound 12b],15680 per well and 16210 per well
3,Cc1nn(C)c(C)c1CCOc1ccccc1-c1cccc(N2CCNCC2)c1 [Compound 12d],14920 per well and 16520 per well
4,Cc1nn(C)c(C)c1CCOc1cc(F)ccc1-c1cccc(N2CCNCC2)c1 [Compound 12f],15290 per well and 15210 per well

# Same assay, conditions: 5 uM, two technical replicates
row,SMILES,Nucleus counts per well
1,Cc1nn(C)c(C)c1CCOc1cccnc1-c1ccnc(N2CCNCC2)c1 [Compound 12a],15510 per well and 14150 per well
2,Cc1nn(C)c(C)c1CCOc1cccnc1-c1cccc(N2CCNCC2)c1 [Compound 12b],15950 per well and 14130 per well
3,Cc1nn(C)c(C)c1CCOc1ccccc1-c1cccc(N2CCNCC2)c1 [Compound 12d],15990 per well and 14720 per well
4,Cc1nn(C)c(C)c1CCOc1cc(F)ccc1-c1cccc(N2CCNCC2)c1 [Compound 12f],15170 per well and 14310 per well

# Same assay, conditions: 10uM, two technical replicates
row,SMILES,Nucleus counts per well
1,Cc1nn(C)c(C)c1CCOc1cccnc1-c1ccnc(N2CCNCC2)c1 [Compound 12a],13830 per well and 15570 per well
2,Cc1nn(C)c(C)c1CCOc1cccnc1-c1cccc(N2CCNCC2)c1 [Compound 12b],15200 per well and 15960 per well
3,Cc1nn(C)c(C)c1CCOc1ccccc1-c1cccc(N2CCNCC2)c1 [Compound 12d],15680 per well and 15000 per well
4,Cc1nn(C)c(C)c1CCOc1cc(F)ccc1-c1cccc(N2CCNCC2)c1 [Compound 12f],14300 per well and 15260 per well

# Same assay, conditions: 20uM, two technical replicates, P. vivax-infected wells
row,SMILES,Nucleus counts per well
1,Cc1nn(C)c(C)c1CCOc1cccnc1-c1ccnc(N2CCNCC2)c1 [Compound 12a],12100 per well and 13960 per well
2,Cc1nn(C)c(C)c1CCOc1cccnc1-c1cccc(N2CCNCC2)c1 [Compound 12b],12570 per well and 13810 per well
3,Cc1nn(C)c(C)c1CCOc1ccccc1-c1cccc(N2CCNCC2)c1 [Compound 12d],12690 per well and 13950 per well
4,Cc1nn(C)c(C)c1CCOc1cc(F)ccc1-c1cccc(N2CCNCC2)c1 [Compound 12f],13150 per well and 16410 per well

# Test system: not listed separately
# Test: HepG2 cytotoxicity assay (Live/Dead staining)
# Settings: human, HepG2 cells
# How it was run: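 Live/dead fluorescence microscopy (calcein-AM and ethidium homodimer, 1 µM each) read at 72 h post-treatment. Compounds dosed at 1 to 20 µM on HepG2 cells, with washing and fresh compound every 24 h.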
row,SMILES,IC50 at 48 h
1,Cc1nn(C)c(C)c1CCOc1cccnc1-c1ccnc(N2CCNCC2)c1 [Compound 12a],> 20000 nM
2,Cc1nn(C)c(C)c1CCOc1cccnc1-c1cccc(N2CCNCC2)c1 [Compound 12b],> 20000 nM
3,Cc1nn(C)c(C)c1CCOc1ccccc1-c1cccc(N2CCNCC2)c1 [Compound 12d],> 20000 nM
4,Cc1nn(C)c(C)c1CCOc1cc(F)ccc1-c1cccc(N2CCNCC2)c1 [Compound 12f],> 20000 nM

# Test system: P. falciparum NF54
# Test: P. falciparum blood stage assay (SYBR Green)
# Type: cell-based, Plasmodium falciparum
# Settings: 0.625 uM, 72 h; untreated = 129
# Experimental: To assess whether any of the PvNMTis developed here could qualify as TCP-1 candidates, we assessed the effect of each compound on blood-stage P. falciparum parasites, as there is currently no well-established in vitro platform for screening P. vivax blood-stage parasites. Synchronized P. falciparum NF54 ring-stage parasites were treated for 72 h with each compound at various concentrations, ranging from 0.625 µM to 10 µM, and parasite DNA replication was measured using a fluorescent DNA binding dye (SYBR Green).
# Sorbitol-synchronized P. falciparum NF54 ring-stage parasites were cultured at a parasitemia of 0.5% and hematocrit of 1.5% in a 96-well microtiter plate. Parasites were treated with each NMT inhibitor compound at 0.625, 1.25, 2.5, 5, or 10 µM for 72 h. Direct lysis of the blood cells to release the parasite DNA was performed by adding 100 μl of LBS buffer containing SYBR green I DNA binding dye to each well. […] ICEstimator regression analysis (http://www.antimalarial-icestimator.net/) was used to obtain relative IC50 values for each compound.
row,SMILES,P. falciparum blood-stage development (parasite DNA level fluorescence)
1,Cc1nn(C)c(C)c1CCOc1cccnc1-c1ccnc(N2CCNCC2)c1 [Compound 12a],128.4
2,Cc1nn(C)c(C)c1CCOc1cccnc1-c1cccc(N2CCNCC2)c1 [Compound 12b],118
3,Cc1nn(C)c(C)c1CCOc1ccccc1-c1cccc(N2CCNCC2)c1 [Compound 12d],123.5
4,Cc1nn(C)c(C)c1CCOc1cc(F)ccc1-c1cccc(N2CCNCC2)c1 [Compound 12f],118.6

# Same assay, conditions: 1.25 uM, 72 h; untreated = 129
row,SMILES,P. falciparum blood-stage development (parasite DNA level fluorescence)
1,Cc1nn(C)c(C)c1CCOc1cccnc1-c1ccnc(N2CCNCC2)c1 [Compound 12a],125.3
2,Cc1nn(C)c(C)c1CCOc1cccnc1-c1cccc(N2CCNCC2)c1 [Compound 12b],125.4
3,Cc1nn(C)c(C)c1CCOc1ccccc1-c1cccc(N2CCNCC2)c1 [Compound 12d],124.2
4,Cc1nn(C)c(C)c1CCOc1cc(F)ccc1-c1cccc(N2CCNCC2)c1 [Compound 12f],121.1

# Same assay, conditions: 2.5 uM, 72 h; untreated = 129
row,SMILES,P. falciparum blood-stage development (parasite DNA level fluorescence)
1,Cc1nn(C)c(C)c1CCOc1cccnc1-c1ccnc(N2CCNCC2)c1 [Compound 12a],116.9
2,Cc1nn(C)c(C)c1CCOc1cccnc1-c1cccc(N2CCNCC2)c1 [Compound 12b],119.5
3,Cc1nn(C)c(C)c1CCOc1ccccc1-c1cccc(N2CCNCC2)c1 [Compound 12d],118.5
4,Cc1nn(C)c(C)c1CCOc1cc(F)ccc1-c1cccc(N2CCNCC2)c1 [Compound 12f],112.3

# Same assay, conditions: 5 uM, 72 h; untreated = 129
row,SMILES,P. falciparum blood-stage development (parasite DNA level fluorescence)
1,Cc1nn(C)c(C)c1CCOc1cccnc1-c1ccnc(N2CCNCC2)c1 [Compound 12a],107.7
2,Cc1nn(C)c(C)c1CCOc1cccnc1-c1cccc(N2CCNCC2)c1 [Compound 12b],108.7
3,Cc1nn(C)c(C)c1CCOc1ccccc1-c1cccc(N2CCNCC2)c1 [Compound 12d],101.9
4,Cc1nn(C)c(C)c1CCOc1cc(F)ccc1-c1cccc(N2CCNCC2)c1 [Compound 12f],99.32

# Same assay, conditions: 10 uM, 72 h; untreated = 129
row,SMILES,P. falciparum blood-stage development (parasite DNA level fluorescence)
1,Cc1nn(C)c(C)c1CCOc1cccnc1-c1ccnc(N2CCNCC2)c1 [Compound 12a],96.27
2,Cc1nn(C)c(C)c1CCOc1cccnc1-c1cccc(N2CCNCC2)c1 [Compound 12b],105.8
3,Cc1nn(C)c(C)c1CCOc1ccccc1-c1cccc(N2CCNCC2)c1 [Compound 12d],92.65
4,Cc1nn(C)c(C)c1CCOc1cc(F)ccc1-c1cccc(N2CCNCC2)c1 [Compound 12f],89.25

# Same assay, conditions: Plasmodium falciparum, NF54; ring-stage parasites, 72 h, relative IC50
row,SMILES,IC50
1,Cc1nn(C)c(C)c1CCOc1cccnc1-c1ccnc(N2CCNCC2)c1 [Compound 12a],810 nM
2,Cc1nn(C)c(C)c1CCOc1cccnc1-c1cccc(N2CCNCC2)c1 [Compound 12b],470 nM
3,Cc1nn(C)c(C)c1CCOc1ccccc1-c1cccc(N2CCNCC2)c1 [Compound 12d],800 nM
4,Cc1nn(C)c(C)c1CCOc1cc(F)ccc1-c1cccc(N2CCNCC2)c1 [Compound 12f],610 nM
